Laboratory results published in ChEMBL document CHEMBL1201862, “PubChem BioAssay data set” (2004).
The source made the active and inactive calls.

Columns and labels:
[1] = target: T1, Mannose-6-phosphate isomerase (Homo sapiens, UniProt P34949); test: MPI inhibition at elevated mannose 6-phosphate – biochemical, fluorescence intensity, high mannose 6-phosphate, primary screen (AID 1220)
T1 sequence (P34949 whole entry): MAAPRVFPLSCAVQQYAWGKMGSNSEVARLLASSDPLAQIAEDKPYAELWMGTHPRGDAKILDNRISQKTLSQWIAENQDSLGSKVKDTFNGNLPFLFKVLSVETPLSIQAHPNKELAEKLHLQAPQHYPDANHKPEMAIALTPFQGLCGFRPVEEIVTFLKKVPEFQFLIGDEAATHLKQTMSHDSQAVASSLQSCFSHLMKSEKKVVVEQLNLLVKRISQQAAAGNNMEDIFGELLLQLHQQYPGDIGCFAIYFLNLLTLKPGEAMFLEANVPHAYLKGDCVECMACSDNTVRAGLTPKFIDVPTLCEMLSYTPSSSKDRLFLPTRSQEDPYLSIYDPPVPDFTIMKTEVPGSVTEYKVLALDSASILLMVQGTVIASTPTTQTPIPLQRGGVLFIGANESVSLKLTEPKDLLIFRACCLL

[2] = target: Lysine-specific demethylase 4A (Homo sapiens, UniProt O75164); test: inhibition of JMJD2A H3K9me3 demethylation – biochemical, DELFIA europium, cherry-picked samples, selectivity assay for GASC-1 inhibitor project, dose response (AID 488840)
Sequence of Lysine-specific demethylase 4A (O75164 whole entry): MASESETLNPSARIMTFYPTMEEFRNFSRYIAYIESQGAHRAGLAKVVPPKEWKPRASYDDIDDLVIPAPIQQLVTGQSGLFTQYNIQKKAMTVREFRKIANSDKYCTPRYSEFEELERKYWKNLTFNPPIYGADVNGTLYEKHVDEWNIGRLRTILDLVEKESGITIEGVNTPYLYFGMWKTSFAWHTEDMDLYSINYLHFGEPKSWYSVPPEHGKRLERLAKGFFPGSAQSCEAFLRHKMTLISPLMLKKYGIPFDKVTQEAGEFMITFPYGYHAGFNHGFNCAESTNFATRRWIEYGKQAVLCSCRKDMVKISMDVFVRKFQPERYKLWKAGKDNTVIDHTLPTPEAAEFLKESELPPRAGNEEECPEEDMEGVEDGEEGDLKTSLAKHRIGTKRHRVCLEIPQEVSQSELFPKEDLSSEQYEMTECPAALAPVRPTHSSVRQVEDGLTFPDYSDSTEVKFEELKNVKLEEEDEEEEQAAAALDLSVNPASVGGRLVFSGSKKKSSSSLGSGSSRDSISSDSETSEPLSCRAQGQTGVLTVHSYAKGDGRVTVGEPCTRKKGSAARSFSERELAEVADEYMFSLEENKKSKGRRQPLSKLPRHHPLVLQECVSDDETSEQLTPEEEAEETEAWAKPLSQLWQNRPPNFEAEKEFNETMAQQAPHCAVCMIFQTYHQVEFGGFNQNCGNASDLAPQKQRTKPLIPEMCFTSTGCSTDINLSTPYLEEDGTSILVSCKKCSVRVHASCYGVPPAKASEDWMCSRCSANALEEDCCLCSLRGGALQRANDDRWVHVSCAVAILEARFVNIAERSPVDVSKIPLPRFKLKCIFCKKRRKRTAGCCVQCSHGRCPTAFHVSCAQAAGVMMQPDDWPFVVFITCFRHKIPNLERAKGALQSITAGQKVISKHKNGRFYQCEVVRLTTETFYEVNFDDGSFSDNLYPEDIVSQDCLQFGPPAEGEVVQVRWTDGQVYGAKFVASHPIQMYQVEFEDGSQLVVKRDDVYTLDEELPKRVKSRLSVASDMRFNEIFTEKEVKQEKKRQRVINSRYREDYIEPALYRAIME

BJ [3] = test: BJ-TERT fibroblast viability loss – cell-based, RAS-independent, luminescence, dose response (AID 1933); format: functional; conditions: Homo sapiens
BJ [4] = test: cells; format: functional, cell-based; conditions: Homo sapiens
[5] = viability of PTEN-deleted HCT116 cells – cell-based, HCT116 PTEN knockout, dose response (AID 1047); format: functional;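 further: HCT116 colon tumor cells with PTEN knocked out; cells exposed to compound for 60 hours before readout; potency for loss of cell viability measured by luminescence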
[6] = viability of HCT116 lacking mutant beta-catenin – cell-based, human colon tumor, dose response (AID 1045); format: functional;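 further: HCT116 colon tumor cells with beta catenin knocked out; cells exposed to compound for 60 hours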
BJ [7] = test: BJ-TERT-LT-ST fibroblast viability loss – cell-based, RAS-independent, luminescence, dose response (AID 1935); format: functional; conditions: Homo sapiens;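 further: BJ fibroblasts immortalized with TERT plus LT and ST oncogenes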
[8] = DRD fibroblast viability loss – cell-based, non-viral oncogenic, luminescence, dose response (AID 1934); format: functional; conditions: Homo sapiens
[9] = THP-1 cell cytotoxicity, dose response, cytotoxicity control for non-replicating M. tuberculosis project (AID 489025); format: functional
[10] = Vero E6 cell cytotoxicity, dose response, cytotoxicity control for non-replicating M. tuberculosis project, secondary assay (AID 492998); format: functional, VeroE6; conditions: Vero C1008
[11] = target: T2, Heat shock factor protein 1 (Mus musculus, UniProt P38532); test: enhancement of HSF1-driven luciferase signal – cell-based, NIH3T3, luminescence, dose retest, confirmation (AID 435004); format: functional;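 further: stress induced by proteasome inhibitor MG132 added 30 min after compound; luciferase reporter driven by HSF1 response element in NIH3T3 cells; actives raise luminescence as potentiators of the MG132 stress response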
T2 sequence (P38532 whole entry): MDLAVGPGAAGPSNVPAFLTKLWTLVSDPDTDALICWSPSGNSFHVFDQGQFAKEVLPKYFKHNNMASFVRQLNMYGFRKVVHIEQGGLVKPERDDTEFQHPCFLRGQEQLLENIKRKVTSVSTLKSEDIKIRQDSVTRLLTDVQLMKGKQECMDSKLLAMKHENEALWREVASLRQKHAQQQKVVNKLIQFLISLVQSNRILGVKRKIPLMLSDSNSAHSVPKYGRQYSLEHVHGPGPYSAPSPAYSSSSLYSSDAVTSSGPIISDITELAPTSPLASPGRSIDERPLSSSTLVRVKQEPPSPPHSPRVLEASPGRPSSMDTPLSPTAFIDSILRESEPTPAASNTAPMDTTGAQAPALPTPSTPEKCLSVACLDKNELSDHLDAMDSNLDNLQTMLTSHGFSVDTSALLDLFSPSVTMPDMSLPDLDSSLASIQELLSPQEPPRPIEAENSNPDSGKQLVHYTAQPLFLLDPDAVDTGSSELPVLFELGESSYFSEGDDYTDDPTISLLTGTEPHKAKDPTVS

[12] = target: T3, Microphthalmia-associated transcription factor (Homo sapiens, UniProt O75030); test: reducers of TRPM1 reporter luminescence, concentration series – cell-based, SK-MEL-5, cherry-picked, set 3, MITF inhibitor project, dose response (AID 493073); format: functional;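 further: SK-MEL-5 melanoma cells with luciferase driven by the MITF target TRPM1 promoter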
T3 sequence (O75030 whole entry): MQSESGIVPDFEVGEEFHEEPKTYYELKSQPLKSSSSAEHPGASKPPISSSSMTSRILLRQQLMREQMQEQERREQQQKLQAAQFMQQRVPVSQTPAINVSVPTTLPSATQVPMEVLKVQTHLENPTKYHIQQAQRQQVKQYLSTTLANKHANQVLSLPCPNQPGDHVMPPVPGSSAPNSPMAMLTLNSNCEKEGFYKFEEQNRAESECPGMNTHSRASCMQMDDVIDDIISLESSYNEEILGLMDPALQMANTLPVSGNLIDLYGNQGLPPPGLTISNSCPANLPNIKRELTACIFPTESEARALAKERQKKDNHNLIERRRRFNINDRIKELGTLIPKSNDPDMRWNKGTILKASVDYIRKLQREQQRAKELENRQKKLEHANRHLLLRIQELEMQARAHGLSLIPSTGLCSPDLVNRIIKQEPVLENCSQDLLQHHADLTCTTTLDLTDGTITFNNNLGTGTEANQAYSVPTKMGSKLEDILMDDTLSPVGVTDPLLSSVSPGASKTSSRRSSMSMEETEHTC

cells = format: functional
Vero = test: cells; format: functional, cell-based; conditions: Chlorocebus sabaeus
Caspase-6 = target: T4, Caspase-6 (Homo sapiens, UniProt P55212); test: inhibition of CASP6 peptide cleavage – biochemical, VEID-R110 fluorescence, cherry-pick, dose response (AID 720632)
T4 sequence (P55212 whole entry): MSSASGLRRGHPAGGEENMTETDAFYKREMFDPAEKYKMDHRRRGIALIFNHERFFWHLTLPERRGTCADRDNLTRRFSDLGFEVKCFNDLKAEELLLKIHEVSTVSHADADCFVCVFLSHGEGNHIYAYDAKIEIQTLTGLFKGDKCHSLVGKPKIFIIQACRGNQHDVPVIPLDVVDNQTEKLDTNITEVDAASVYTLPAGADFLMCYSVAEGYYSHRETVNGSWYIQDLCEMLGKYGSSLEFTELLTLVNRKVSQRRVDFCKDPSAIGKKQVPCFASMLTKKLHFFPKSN

HEK293 [13] = test: cells; conditions: Homo sapiens
HEK293 [14] = test: cells; conditions: Homo sapiens; remark: listed apart in the source
[15] = luciferase reporter signal suppression in cells – H4 neuroglioma cells, luminescence, dose response (AID 1990); format: functional, cell-based
[16] = target: T5, Eukaryotic translation initiation factor 2-alpha kinase 3 (Homo sapiens, UniProt Q9NZJ5); test: Dose response cell-based high-throughput screening assay to measure PERK inhibition. [Related pubchem assays: 1416 ]; format: functional
T5 sequence (Q9NZJ5 whole entry): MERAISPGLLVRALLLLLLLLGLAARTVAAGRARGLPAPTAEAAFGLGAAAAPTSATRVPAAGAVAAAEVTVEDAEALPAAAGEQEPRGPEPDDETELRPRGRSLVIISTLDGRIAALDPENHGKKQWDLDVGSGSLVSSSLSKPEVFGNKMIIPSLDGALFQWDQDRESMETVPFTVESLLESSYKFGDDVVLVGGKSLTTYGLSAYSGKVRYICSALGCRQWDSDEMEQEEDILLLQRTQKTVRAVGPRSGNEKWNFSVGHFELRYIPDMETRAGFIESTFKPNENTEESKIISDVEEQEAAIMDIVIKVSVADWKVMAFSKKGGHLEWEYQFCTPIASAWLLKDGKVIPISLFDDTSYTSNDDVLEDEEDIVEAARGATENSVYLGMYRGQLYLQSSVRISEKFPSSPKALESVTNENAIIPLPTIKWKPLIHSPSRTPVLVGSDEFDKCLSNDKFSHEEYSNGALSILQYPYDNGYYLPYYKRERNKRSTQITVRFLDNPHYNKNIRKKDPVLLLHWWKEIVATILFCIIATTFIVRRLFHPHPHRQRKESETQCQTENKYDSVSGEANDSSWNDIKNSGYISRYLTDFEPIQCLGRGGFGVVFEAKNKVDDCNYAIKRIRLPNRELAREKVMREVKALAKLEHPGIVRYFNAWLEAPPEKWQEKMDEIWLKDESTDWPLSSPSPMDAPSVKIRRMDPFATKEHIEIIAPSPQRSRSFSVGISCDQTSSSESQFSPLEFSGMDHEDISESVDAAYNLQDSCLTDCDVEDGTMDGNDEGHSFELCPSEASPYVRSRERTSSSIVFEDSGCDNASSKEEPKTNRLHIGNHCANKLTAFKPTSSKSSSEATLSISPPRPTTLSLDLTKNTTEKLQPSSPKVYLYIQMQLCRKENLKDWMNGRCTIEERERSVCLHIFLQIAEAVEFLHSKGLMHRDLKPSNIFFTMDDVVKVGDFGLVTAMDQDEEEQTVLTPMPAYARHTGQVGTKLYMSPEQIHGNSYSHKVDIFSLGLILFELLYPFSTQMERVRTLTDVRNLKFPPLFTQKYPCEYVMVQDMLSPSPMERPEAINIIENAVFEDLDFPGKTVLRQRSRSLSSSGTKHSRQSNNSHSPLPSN

[17] = Luminescence Cell-Based Dose Response HTS to Identify Inhibitors of 5'UTR Stem-Loop Driven Prion Protein mRNA Translation in H4 Neuroglioblastoma Cells. [Related pubchem assays: 1827 (Project Summary), 1813 (Primary HTS)]; format: functional
[18] = alpha-synuclein stem-loop luciferase translation blockers – H4 neuroglioma cells, luminescence, confirmation (AID 1988); format: functional, cell-based
[19] = target: T5, Eukaryotic translation initiation factor 2-alpha kinase 3; test: Counterscreen assay for PERK inhibitors: Dose response cell-based high throughput screening assay to measure inhibition of PERK at 6 hours. [Related pubchem assays: 1522, 1416 ]; format: functional
Cytochrome P450 2D6 = Cytochrome P450 2D6 (Homo sapiens, UniProt P10635);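 further: CYP2D6 member of a cytochrome P450 panel assay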
Sequence of Cytochrome P450 2D6 (P10635 whole entry): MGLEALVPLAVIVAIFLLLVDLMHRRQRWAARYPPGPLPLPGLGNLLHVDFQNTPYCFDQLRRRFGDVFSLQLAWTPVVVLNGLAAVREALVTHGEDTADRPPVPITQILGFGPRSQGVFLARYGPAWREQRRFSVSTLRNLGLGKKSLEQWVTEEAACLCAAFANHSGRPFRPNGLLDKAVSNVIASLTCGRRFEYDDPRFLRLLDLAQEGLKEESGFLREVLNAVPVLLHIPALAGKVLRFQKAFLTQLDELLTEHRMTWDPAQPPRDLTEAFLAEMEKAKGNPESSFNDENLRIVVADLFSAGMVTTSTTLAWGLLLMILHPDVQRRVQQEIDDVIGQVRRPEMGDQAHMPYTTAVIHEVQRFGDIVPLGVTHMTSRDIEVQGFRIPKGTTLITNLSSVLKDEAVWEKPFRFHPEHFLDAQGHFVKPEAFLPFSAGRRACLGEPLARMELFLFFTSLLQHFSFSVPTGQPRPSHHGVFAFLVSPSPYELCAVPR

CC(=O)Nc1ccc2c(c1)C(C)(C)C(C)N2C (stereo not drawn)
IC50 [1]: > 50 µM (not active) | AC50 [2]: 17.9 µM (active)

O=C1c2cc([N+](=O)[O-])cc3cc([N+](=O)[O-])cc(c23)C(=O)N1c1ccccn1
EC50 (BJ [3]): 37.1 µM (active) | EC50 (BJ [4]): 54.8 µM (active) | EC50 [5]: 9.92 µM (active) | EC50 [6]: 7.76 µM (active) | EC50 (BJ [7]): > 150 µM (inconclusive) | EC50 [8]: 11.2 µM (active) | CC50 [9]: 17.5 µM (active) | CC50 [10]: 15.2 µM (active) | EC50 [11]: 13.7 µM (active) | AC50 [12]: 7.92 µM (active) | IC50 (cells): 3.43 µM (active) | IC50 (Vero): 16.3 µM (active) | AC50 (Caspase-6): 15.3 µM (active) | EC50 (HEK293 [13]): > 59.7 µM (inactive) | EC50 (HEK293 [14]): > 59.7 µM (inactive)

CC(C)n1nnnc1-c1cc(Cl)cc(Cl)c1
EC50 [15]: > 120 µM (not active) | EC50 [16]: > 55.7 µM (not active) | EC50 [17]: 10.2 µM (active) | EC50 [18]: > 120 µM (not active) | EC50 [19]: > 55.7 µM (not active) | AC50 (Cytochrome P450 2D6): inconclusive
